For 3 compounds, GI50 and TGI results are on record in PubChem BioAssay (NCI).

Common to all, as to test: NCI anticancer screen, dose series, 48 h
Assay [1] concerns HCT-116 colon.
The subject of assay [2] is HCT-15 colon.
The subject of assay [3] is HOP-62 NSCLC.
Assay [4] concerns MDA-MB-231 breast.
The test system of assay [5] is NCI-H522 lung.
In assay [6] the test system is NCI/ADR-RES ovarian.
For assay [7], the system named is OVCAR-3 ovarian.
The subject of assay [8] is RPMI-8226 leukemia.
Assay [9] relates to SW-620 colon.
For assay [10], the system named is UACC-62 melanoma.

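In this assay, cells in 96-well plates receive the compound at five concentrations for 48 hours. Endpoints are linearly interpolated between the surrounding concentrations. GI50: concentration for 50% inhibition of growth. The concentration for full growth arrest is given as TGI.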

For `COc1cc(/C=C/C(=O)c2c(-c3ccc(F)cc3)nc3sc(C)nn23)cc(OC)c1OC`, the GI50 in assay [1] was 1.64 µM; in assay [2], 2 µM; in assay [3], 2.28 µM; in assay [4], 1.99 µM; in assay [5], 1.55 µM; in assay [6] it was 2.57 µM. Besides, the GI50 in assay [7] is 2.63 µM; in assay [8], 1.92 µM; in assay [9], 2.02 µM; in assay [10], 1.94 µM. Further, the TGI in assay [1] turned out to be 3.07 µM; in assay [2], 5.46 µM; in assay [3], 7.06 µM; in assay [4] it was 8.51 µM; in assay [5] it was 3.19 µM; in assay [6], 9.91 µM. Also, the TGI amounted to 7 µM in [7], 5.13 µM in assay [8], 4.51 µM in assay [9] and 4.44 µM in assay [10].
On to `O=[N+]([O-])c1ccc2c(c1)C(c1ccccc1Cl)=Nc1c(n[nH]c1-c1cccnc1)N2`, for which the GI50 in assay [1], in assay [2], in assay [3], in assay [4], in assay [5] and in assay [6] was above 25 µM each time. Further, the GI50 in assay [7], in [8], in assay [9] and in assay [10] was above 25 µM throughout. Further, the TGI in [1], in [2], in assay [3], in [4], in assay [5] and in [6] was above 25 µM throughout. The TGI in assay [7], in assay [8], in assay [9] and in [10] was above 25 µM each time.
Take `O=C(O)c1cn(C2CC2)c2cc(N3CCN(Cc4c(O)ccc5ccccc45)CC3)c(F)cc2c1=O`: the GI50 is 2.37 µM in [1]; 3.64 µM in assay [2]; 3.99 µM in assay [3]; 5.15 µM in assay [4]; 2.82 µM in [5]; 11.4 µM in [6]. In addition, the GI50 in [7] was 3.4 µM; in assay [8], 12 µM; in assay [9], 4.12 µM; in [10], 13.5 µM. Also, the TGI is 6.17 µM in assay [1]; above 100 µM in assay [2]; 43.1 µM in [3]; above 100 µM in assay [4]; above 100 µM in assay [5]; above 100 µM in assay [6]. The TGI in assay [7] was 22.6 µM; in assay [8] it was above 100 µM; in assay [9], above 100 µM; in [10] it was above 100 µM.
